# Measured values as given in publication PMC11555526, “Development of 2-Aminoadenine-Based Proteolysis-Targeting Chimeras (PROTACs) as Novel Potent Degraders of Monopolar Spindle 1 and Aurora Kinases” (ACS Pharmacology & Translational Science, 2024).
# “And” between values parts separate entries of the source, which are not always exact repeats. Equal values may be shown once. Read-outs that look alike come from different tables or passages of the source.
# Columns and labels:
# [1] = target: T1, AURKB (MV4-11^AURKB-HiBiT cells) (Homo sapiens, UniProt Q96GD4); assay: HiBiT assay, AURKB degradation; assay type: cell-based; design: key to Dmax (maximal degradation) AURKB: compounds with degradation less than 15% reported as “inactive”; settings: 6 h treatment; for DC50: read-out: DC50 (half-maximal degradation concentration) AURKB
# T1 construct: expressed in transfected cells; host or cells: MV4-11, lentiviral transduction (pRRL-PGK vector)
# T1 sequence (Q96GD4 1-345 isoform Q96GD4-5): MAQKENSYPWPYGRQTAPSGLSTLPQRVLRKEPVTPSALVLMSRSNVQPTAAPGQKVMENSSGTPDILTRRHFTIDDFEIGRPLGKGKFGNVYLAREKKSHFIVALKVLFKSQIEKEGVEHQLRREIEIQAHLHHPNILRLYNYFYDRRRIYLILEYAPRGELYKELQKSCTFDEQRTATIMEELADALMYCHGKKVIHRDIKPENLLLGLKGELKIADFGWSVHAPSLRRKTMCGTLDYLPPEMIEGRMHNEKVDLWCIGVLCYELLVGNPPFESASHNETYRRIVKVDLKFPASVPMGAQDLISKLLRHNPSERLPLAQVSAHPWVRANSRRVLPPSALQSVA
# Description: (§1) The effects of the synthesized compounds on AURKA, AURKB, and TTK mitotic kinases were then assessed in cellular systems. For this, HiBiT cell lines were generated for all three mitotic kinases. A small 11 amino acid peptide fragment of luciferase (HiBiT) was fused to the coding sequence of the proteins and stably transduced in the MV4-11 cell line (MV4-11^AURKA-HiBiT, MV4-11^AURKB-HiBiT, and MV4-11^HiBiT-TTK).
# (§2) The stable cell lines MV4-11^AURKA-HiBiT, MV4-11^AURKB-HiBiT, and MV4-11^HiBiT-TTK cells were generated by lentiviral infection. Lentivirus was produced using the respective HiBiT vector, plasmids psPAX2, and pMD2.G in HEK293 cells. The virus supernatant was filtered and MV4-11 cells were doubly infected with the supernatant. The cells were selected after 48 h of infection until the control cells were dead to get the stable cell line.
# (§3) The cells stably expressing HiBiT-tagged protein were seeded into 96-well plates and treated with serial dilutions of compounds for the indicated time points. At the end point, the assay was performed using the Nano-Glo HiBiT Lytic Detection System (Promega) according to the manufacturer’s instruction. Luminescence was measured on a GloMax 96 Microplate Luminometer (Promega) or a Tecan Spark Multiplate reader (Tecan). DC50 was calculated using concentrations showing sigmoidal behavior with the dose–response (four parameters) equation in Prism (GraphPad).
# [2] = target: T2, TTK (MV4-11^HiBiT-TTK cells) (Homo sapiens, UniProt P33981); assay: HiBiT assay, TTK degradation; assay type: cell-based; design: key to Dmax (maximal degradation) TTK: compounds with degradation less than 15% reported as “inactive”; settings: 6 h treatment, MV4-11^HiBiT-TTK cells; for DC50: read-out: DC50 (half-maximal degradation concentration) TTK
# T2 construct: expressed in transfected cells; host or cells: MV4-11, lentiviral transduction (pRRL-PGK-HiBiT entry vector)
# T2 sequence (P33981 1-857): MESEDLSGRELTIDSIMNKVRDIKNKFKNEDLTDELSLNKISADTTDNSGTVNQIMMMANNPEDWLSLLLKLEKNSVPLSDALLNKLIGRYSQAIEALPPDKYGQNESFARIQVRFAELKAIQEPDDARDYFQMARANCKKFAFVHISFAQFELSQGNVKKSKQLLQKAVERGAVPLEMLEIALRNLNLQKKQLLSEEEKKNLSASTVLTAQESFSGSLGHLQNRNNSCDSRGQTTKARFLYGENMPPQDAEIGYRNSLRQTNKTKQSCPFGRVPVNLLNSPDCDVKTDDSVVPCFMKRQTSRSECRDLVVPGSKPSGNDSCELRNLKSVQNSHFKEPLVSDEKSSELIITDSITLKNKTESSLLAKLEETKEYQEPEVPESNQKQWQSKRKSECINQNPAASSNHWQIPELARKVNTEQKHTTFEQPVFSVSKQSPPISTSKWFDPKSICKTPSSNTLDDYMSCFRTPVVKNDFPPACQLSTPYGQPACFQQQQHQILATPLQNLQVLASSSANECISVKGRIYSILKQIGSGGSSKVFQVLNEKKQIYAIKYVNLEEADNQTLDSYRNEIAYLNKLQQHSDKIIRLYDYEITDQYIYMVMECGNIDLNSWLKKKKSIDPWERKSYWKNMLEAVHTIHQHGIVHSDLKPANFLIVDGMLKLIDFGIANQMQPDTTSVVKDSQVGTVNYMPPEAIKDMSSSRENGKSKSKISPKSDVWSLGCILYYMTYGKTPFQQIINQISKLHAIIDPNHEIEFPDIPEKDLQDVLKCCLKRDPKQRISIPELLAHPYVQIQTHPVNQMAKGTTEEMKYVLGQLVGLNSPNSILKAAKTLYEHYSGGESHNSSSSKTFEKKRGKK
# Description: as §1, §2, §3
# MV4-11 cells (naive) = assay: alamarBlue cell viability assay; assay type: cell-based, human
# Description: Finally, to study the effect of the compounds on cancer cell survival, MV4-11 cells were treated with various concentrations of the chimeras and the cell viability was assessed after 72 h. […] As opposed to the parent inhibitor MPS1-IN-3, its derivatives except 40 were not cytotoxic (Figure S7B, Table 5). […] In addition, most of the SF1-based derivatives affected the viability of MV4-11 cells in nanomolar concentrations (Table 5).
# For the alamarBlue cell viability assay, cells were seeded in 96-well plates and treated with indicated concentrations of the compounds or vehicle. A few hours before the experimental end point (72 h, unless otherwise stated), the cells were incubated with the alamarBlue reagent. Finally, fluorescence (excitation: 550 nm and emission: 600 nm) or absorbance (570 nm with reference at 600 nm) was measured on a Tecan Spark Multiplate reader (Tecan).
# [3] = target: T3, AURKA (MV4-11^AURKA-HiBiT cells) (Homo sapiens, UniProt O14965); assay: HiBiT assay, AURKA degradation; assay type: cell-based; design: key to Dmax (maximal degradation) AURKA: compounds with degradation less than 15% reported as “inactive”; settings: 6 h treatment, MV4-11^AURKA-HiBiT cells; for DC50: read-out: DC50 (half-maximal degradation concentration) AURKA
# T3 construct: expressed in transfected cells; host or cells: MV4-11, lentiviral transduction
# T3 sequence (O14965 1-403): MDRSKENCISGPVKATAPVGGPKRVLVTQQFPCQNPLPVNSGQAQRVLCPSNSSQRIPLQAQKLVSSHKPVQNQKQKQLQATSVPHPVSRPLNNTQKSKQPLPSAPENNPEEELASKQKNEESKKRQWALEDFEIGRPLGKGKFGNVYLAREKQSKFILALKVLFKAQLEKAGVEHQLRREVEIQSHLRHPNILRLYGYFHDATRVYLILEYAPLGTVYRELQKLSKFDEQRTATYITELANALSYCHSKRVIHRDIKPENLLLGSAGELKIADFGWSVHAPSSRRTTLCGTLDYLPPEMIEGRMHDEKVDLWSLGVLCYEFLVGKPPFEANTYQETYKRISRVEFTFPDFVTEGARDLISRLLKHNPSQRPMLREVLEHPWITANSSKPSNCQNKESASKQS
# Description: as §1, §2, §3
# [4] = 72 h treatment, MV4-11 cells (naive), read-out: EC50 (concentration that decreases cell viability by 50%)
# [5] = 72 h treatment, MV4-11 cells (naive)
Structure (SMILES),Dmax (maximal degradation) AURKB [1],Dmax (maximal degradation) TTK [2],EC50 (MV4-11 cells (naive); [4]),Dmax (maximal degradation) AURKA [3],DC50 [1],DC50 [3],DC50 [2],Dmax ([1]; read-out: Dmax (maximal degradation) AURKB),Dmax ([2]; read-out: Dmax (maximal degradation) TTK),"EC50 (MV4-11 cells (naive); Homo sapiens, 72 h treatment, MV4-11 cells (naive), read-out: EC50 (concentration that decreases cell viability by 50%))",Dmax ([3]; read-out: Dmax (maximal degradation) AURKA),DC50 (half-maximal degradation concentration) AURKB [1],DC50 (half-maximal degradation concentration) TTK [2],DC50 (half-maximal degradation concentration) AURKA [3],EC50 (concentration that decreases cell viability by 50%) (MV4-11 cells (naive); [5]),"EC50 (MV4-11 cells (naive); 72 h, MV4-11 cells, read-out: EC50 cytotoxicity)"
Cc1ncsc1-c1ccc(CNC(=O)[C@@H]2C[C@@H](O)CN2C(=O)[C@@H](NC(=O)CCCC(=O)NCC(=O)N2CCN(c3ccc(Nc4nc(Nc5ccccc5S(=O)(=O)C(C)C)c5nc[nH]c5n4)cc3)CC2)C(C)(C)C)cc1 [Compound 46],29.40%,inactive,1980 nM,57.90%,466 nM,772 nM,,,,,,,– (compounds with degradation less than 25% were not calculated and reported as “–”),,,
COc1cc(N2CCC(OCC(=O)NCCCNc3cccc4c3C(=O)N(C3CCC(=O)NC3=O)C4=O)CC2)ccc1Nc1nc(Nc2ccccc2S(=O)(=O)C(C)C)c2nc[nH]c2n1 (centres unmarked) [Compound 35],inactive,inactive,,inactive,,,,,,,,– (compounds with degradation less than 25% were not calculated and reported as “–”),– (compounds with degradation less than 25% were not calculated and reported as “–”),– (compounds with degradation less than 25% were not calculated and reported as “–”),— (compounds with decrease of cell viability less than 50% were not calculated and reported as “—”),
COc1cc(N2CCC(OCC(=O)NCCCCNc3cccc4c3C(=O)N(C3CCC(=O)NC3=O)C4=O)CC2)ccc1Nc1nc(Nc2ccccc2S(=O)(=O)C(C)C)c2nc[nH]c2n1 (centres unmarked) [Compound 36],inactive,inactive,,inactive,,,,,,,,– (compounds with degradation less than 25% were not calculated and reported as “–”),– (compounds with degradation less than 25% were not calculated and reported as “–”),– (compounds with degradation less than 25% were not calculated and reported as “–”),— (compounds with decrease of cell viability less than 50% were not calculated and reported as “—”),
CC(C)S(=O)(=O)c1ccccc1Nc1nc(Nc2ccc(N3CCNCC3)cc2)nc2[nH]cnc12 [SF1],,,,,993 nM,274 nM,1270 nM,70.2%,88.8%,28 nM,61.9%,,,,,

# More lines, main results first:
Dmax (maximal degradation) AURKB [1],Dmax (maximal degradation) TTK [2],EC50 (MV4-11 cells (naive); [4]),Dmax (maximal degradation) AURKA [3],DC50 [1],DC50 [3],DC50 [2],Dmax ([1]; read-out: Dmax (maximal degradation) AURKB),Dmax ([2]; read-out: Dmax (maximal degradation) TTK),"EC50 (MV4-11 cells (naive); Homo sapiens, 72 h treatment, MV4-11 cells (naive), read-out: EC50 (concentration that decreases cell viability by 50%))",Dmax ([3]; read-out: Dmax (maximal degradation) AURKA),Structure (SMILES),DC50 (half-maximal degradation concentration) AURKB [1],DC50 (half-maximal degradation concentration) TTK [2],DC50 (half-maximal degradation concentration) AURKA [3],EC50 (concentration that decreases cell viability by 50%) (MV4-11 cells (naive); [5]),"EC50 (MV4-11 cells (naive); 72 h, MV4-11 cells, read-out: EC50 cytotoxicity)"
20.40%,16.95%,618 nM,17.00%,,,,,,,,CC(C)S(=O)(=O)c1ccccc1Nc1nc(Nc2ccc(N3CCN(C(=O)CNC(=O)CCCC(=O)Nc4cccc5c4C(=O)N(C4CCC(=O)N(C)C4=O)C5=O)CC3)cc2)nc2[nH]cnc12 (centres unmarked) [Compound 24],– (compounds with degradation less than 25% were not calculated and reported as “–”),– (compounds with degradation less than 25% were not calculated and reported as “–”),– (compounds with degradation less than 25% were not calculated and reported as “–”),,
45.95%,59.05%,126 nM,69.70%,273 nM,4.85 nM,84.5 nM,,,,,CC(C)S(=O)(=O)c1ccccc1Nc1nc(Nc2ccc(N3CCN(CCCCC(=O)Nc4cccc5c4C(=O)N(C4CCC(=O)NC4=O)C5=O)CC3)cc2)nc2[nH]cnc12 (centres unmarked) [Compound 28],,,,,
inactive,inactive,,inactive,,,,,,,,COc1cc(N2CCC(OCC(=O)NCCNc3cccc4c3C(=O)N(C3CCC(=O)NC3=O)C4=O)CC2)ccc1Nc1nc(Nc2ccccc2S(=O)(=O)C(C)C)c2nc[nH]c2n1 (centres unmarked) [Compound 34],– (compounds with degradation less than 25% were not calculated and reported as “–”),– (compounds with degradation less than 25% were not calculated and reported as “–”),– (compounds with degradation less than 25% were not calculated and reported as “–”),— (compounds with decrease of cell viability less than 50% were not calculated and reported as “—”),
48.90%,52.95%,91 nM,75.10%,270 nM,4.8 nM,89.1 nM,,,,,CC(C)S(=O)(=O)c1ccccc1Nc1nc(Nc2ccc(N3CCN(CCCC(=O)Nc4cccc5c4C(=O)N(C4CCC(=O)NC4=O)C5=O)CC3)cc2)nc2[nH]cnc12 (centres unmarked) [Compound 27],,,,,
43.60%,67% and 66.50%,1380 nM,78.80%,570 nM,109 nM,18 nM and 17.7 nM,,,,,O=C(CCCC(=O)Nc1cccc2c1C(=O)N(C1CCC(=O)NC1=O)C2=O)NCC(=O)N1CCN(c2ccc(Nc3nc(NC4CCCCC4)c4nc[nH]c4n3)cc2)CC1 (centres unmarked) [Compound 19],,,,,1400 nM
30.60%,27.70%,1210 nM,68.40%,380 nM,94 nM,3 nM,,,,,O=C1CCC(N2C(=O)c3cccc(NC(=O)CCCC(=O)N4CCN(c5ccc(Nc6nc(NC7CCCCC7)c7nc[nH]c7n6)cc5)CC4)c3C2=O)C(=O)N1 (centres unmarked) [Compound 13],,,,,
